Experimental data published in the NIST ThermoML archive (doi:10.1016/j.fluid.2014.11.020).
Numbers after ± are expanded uncertainties.

Assay: activity coefficient (dimensionless); of the first substance listed, at infinite dilution; xn = mol fraction of the nth substance listed
Conditions: Liquid, Chromatography, x1 = 0

| Compound | activity coefficient (323.15 K) | activity coefficient (333.15 K) | activity coefficient (343.15 K) |
| --- | --- | --- | --- |
| CCCCCC [hexane] + Cn1cc[n+](COCCCOC[n+]2ccn(C)c2)c1.O=S(=O)([N-]S(=O)(=O)C(F)(F)F)C(F)(F)F.O=S(=O)([N-]S(=O)(=O)C(F)(F)F)C(F)(F)F | 18.2 ± 1.2 | 31 ± 2.1 | – |
| CO [methanol] + CCCCCCCCn1cc[n+](COCCC)c1C.N#C[N-]C#N | 0.32 ± 0.03 | 0.29 ± 0.03 | 0.28 ± 0.03 |
| CO [methanol] + CCCCCCCCn1cc[n+](COCCC)c1C.O=S(=O)([N-]S(=O)(=O)C(F)(F)F)C(F)(F)F | 0.98 ± 0.06 | 0.89 ± 0.06 | 0.85 ± 0.05 |
| CO [methanol] + CCCCCCCCn1cc[n+](COCCCOC[n+]2ccn(CCCCCCCC)c2C)c1C.N#C[N-]C#N.N#C[N-]C#N | 0.2 ± 0.03 | 0.2 ± 0.03 | 0.21 ± 0.03 |
| CO [methanol] + CCCCCCCCn1cc[n+](COCCCOC[n+]2ccn(CCCCCCCC)c2C)c1C.O=S(=O)([N-]S(=O)(=O)C(F)(F)F)C(F)(F)F.O=S(=O)([N-]S(=O)(=O)C(F)(F)F)C(F)(F)F | 0.57 ± 0.04 | 0.51 ± 0.04 | 0.49 ± 0.04 |
| CO [methanol] + CCCOC[n+]1ccc(N(C)C)cc1.O=S(=O)([N-]S(=O)(=O)C(F)(F)F)C(F)(F)F | 1.28 ± 0.08 | 1.23 ± 0.08 | 1.16 ± 0.07 |
| CO [methanol] + CCCOC[n+]1ccn(C)c1.F[B-](F)(F)F | 1.29 ± 0.08 | 1.2 ± 0.08 | 1.11 ± 0.07 |
| CO [methanol] + CCCOC[n+]1ccn(C)c1.N#C[N-]C#N | 0.44 ± 0.04 | 0.44 ± 0.04 | 0.45 ± 0.04 |
| CO [methanol] + CCCOC[n+]1ccn(C)c1.O=S(=O)([N-]S(=O)(=O)C(F)(F)F)C(F)(F)F | 1.2 ± 0.08 | 1.12 ± 0.07 | 1.04 ± 0.07 |
| CO [methanol] + CCCOC[n+]1ccn(Cc2ccccc2)c1.F[B-](F)(F)F | 1.13 ± 0.07 | 1.04 ± 0.07 | 0.97 ± 0.06 |
| CO [methanol] + CCCOC[n+]1ccn(Cc2ccccc2)c1.N#C[N-]C#N | 0.39 ± 0.03 | 0.4 ± 0.03 | 0.4 ± 0.03 |
| CO [methanol] + CN(C)c1cc[n+](COCCCOC[n+]2ccc(N(C)C)cc2)cc1.O=S(=O)([N-]S(=O)(=O)C(F)(F)F)C(F)(F)F.O=S(=O)([N-]S(=O)(=O)C(F)(F)F)C(F)(F)F | 0.91 ± 0.06 | 0.86 ± 0.06 | 0.79 ± 0.05 |
| CO [methanol] + Cn1cc[n+](COCCCOC[n+]2ccn(C)c2)c1.N#C[N-]C#N.N#C[N-]C#N | 0.38 ± 0.03 | 0.38 ± 0.03 | 0.37 ± 0.03 |
| CO [methanol] + Cn1cc[n+](COCCCOC[n+]2ccn(C)c2)c1.O=S(=O)([N-]S(=O)(=O)C(F)(F)F)C(F)(F)F.O=S(=O)([N-]S(=O)(=O)C(F)(F)F)C(F)(F)F | 0.76 ± 0.05 | 0.75 ± 0.05 | 0.68 ± 0.05 |
| CO [methanol] + N#C[N-]C#N.N#C[N-]C#N.c1ccc(Cn2cc[n+](COCCCOC[n+]3ccn(Cc4ccccc4)c3)c2)cc1 | 0.52 ± 0.04 | 0.51 ± 0.04 | 0.52 ± 0.04 |
| CC1CCCCC1 [methylcyclohexane] + CCCCCCCCn1cc[n+](COCCC)c1C.N#C[N-]C#N | 5.11 ± 0.35 | 4.86 ± 0.33 | 4.81 ± 0.33 |
| CC1CCCCC1 [methylcyclohexane] + CCCCCCCCn1cc[n+](COCCC)c1C.O=S(=O)([N-]S(=O)(=O)C(F)(F)F)C(F)(F)F | 3.09 ± 0.21 | 2.91 ± 0.2 | 2.8 ± 0.19 |
| CC1CCCCC1 [methylcyclohexane] + CCCCCCCCn1cc[n+](COCCCOC[n+]2ccn(CCCCCCCC)c2C)c1C.N#C[N-]C#N.N#C[N-]C#N | 5.75 ± 0.39 | 5.07 ± 0.35 | 4.82 ± 0.33 |
| CC1CCCCC1 [methylcyclohexane] + CCCCCCCCn1cc[n+](COCCCOC[n+]2ccn(CCCCCCCC)c2C)c1C.O=S(=O)([N-]S(=O)(=O)C(F)(F)F)C(F)(F)F.O=S(=O)([N-]S(=O)(=O)C(F)(F)F)C(F)(F)F | 2.94 ± 0.2 | 2.71 ± 0.18 | 2.73 ± 0.19 |
| CC1CCCCC1 [methylcyclohexane] + CCCOC[n+]1ccc(N(C)C)cc1.O=S(=O)([N-]S(=O)(=O)C(F)(F)F)C(F)(F)F | 9.3 ± 0.63 | 8.99 ± 0.61 | 7.79 ± 0.53 |
| CC1CCCCC1 [methylcyclohexane] + CCCOC[n+]1ccn(C)c1.F[B-](F)(F)F | 76 ± 5.2 | 70.4 ± 4.8 | 59.7 ± 4.1 |
| CC1CCCCC1 [methylcyclohexane] + CCCOC[n+]1ccn(C)c1.N#C[N-]C#N | 44.3 ± 3 | 39.6 ± 2.7 | 35.6 ± 2.4 |

| Compound | activity coefficient (323.15 K) | activity coefficient (333.15 K) | activity coefficient (343.15 K) |
| --- | --- | --- | --- |
| CC1CCCCC1 [methylcyclohexane] + CCCOC[n+]1ccn(C)c1.O=S(=O)([N-]S(=O)(=O)C(F)(F)F)C(F)(F)F | 13 ± 0.89 | 12.9 ± 0.88 | 13 ± 0.89 |
| CC1CCCCC1 [methylcyclohexane] + CCCOC[n+]1ccn(Cc2ccccc2)c1.N#C[N-]C#N | 21.3 ± 1.5 | 20.4 ± 1.4 | 18.2 ± 1.2 |
| CC1CCCCC1 [methylcyclohexane] + CCCOC[n+]1ccn(Cc2ccccc2)c1.O=S(=O)([N-]S(=O)(=O)C(F)(F)F)C(F)(F)F | 6.47 ± 0.44 | 6.14 ± 0.42 | 5.7 ± 0.39 |
| CC1CCCCC1 [methylcyclohexane] + CN(C)c1cc[n+](COCCCOC[n+]2ccc(N(C)C)cc2)cc1.O=S(=O)([N-]S(=O)(=O)C(F)(F)F)C(F)(F)F.O=S(=O)([N-]S(=O)(=O)C(F)(F)F)C(F)(F)F | 13.9 ± 0.95 | 12.7 ± 0.87 | 11.8 ± 0.8 |
| CC1CCCCC1 [methylcyclohexane] + Cn1cc[n+](COCCCOC[n+]2ccn(C)c2)c1.O=S(=O)([N-]S(=O)(=O)C(F)(F)F)C(F)(F)F.O=S(=O)([N-]S(=O)(=O)C(F)(F)F)C(F)(F)F | 21 ± 1.4 | 18.3 ± 1.2 | – |
| CC1CCCC1 [methylcyclopentane] + CCCCCCCCn1cc[n+](COCCC)c1C.N#C[N-]C#N | 4.37 ± 0.3 | 4.16 ± 0.28 | 4.16 ± 0.28 |
| CC1CCCC1 [methylcyclopentane] + CCCCCCCCn1cc[n+](COCCC)c1C.O=S(=O)([N-]S(=O)(=O)C(F)(F)F)C(F)(F)F | 2.72 ± 0.19 | 2.41 ± 0.16 | 2.27 ± 0.15 |
| CC1CCCC1 [methylcyclopentane] + CCCCCCCCn1cc[n+](COCCCOC[n+]2ccn(CCCCCCCC)c2C)c1C.N#C[N-]C#N.N#C[N-]C#N | 4.75 ± 0.32 | 4.7 ± 0.32 | 4.63 ± 0.32 |
| CC1CCCC1 [methylcyclopentane] + CCCCCCCCn1cc[n+](COCCCOC[n+]2ccn(CCCCCCCC)c2C)c1C.O=S(=O)([N-]S(=O)(=O)C(F)(F)F)C(F)(F)F.O=S(=O)([N-]S(=O)(=O)C(F)(F)F)C(F)(F)F | 2.52 ± 0.17 | 2.23 ± 0.15 | 2.17 ± 0.15 |
| CC1CCCC1 [methylcyclopentane] + CCCOC[n+]1ccc(N(C)C)cc1.O=S(=O)([N-]S(=O)(=O)C(F)(F)F)C(F)(F)F | 7.35 ± 0.5 | 7.22 ± 0.49 | 6.1 ± 0.42 |
| CC1CCCC1 [methylcyclopentane] + CCCOC[n+]1ccn(C)c1.N#C[N-]C#N | 27.7 ± 1.9 | 24.4 ± 1.7 | – |
| CC1CCCC1 [methylcyclopentane] + CCCOC[n+]1ccn(Cc2ccccc2)c1.N#C[N-]C#N | 15.7 ± 1.1 | 15.2 ± 1 | 13.5 ± 0.92 |
| CC1CCCC1 [methylcyclopentane] + CCCOC[n+]1ccn(Cc2ccccc2)c1.O=S(=O)([N-]S(=O)(=O)C(F)(F)F)C(F)(F)F | 5.48 ± 0.37 | 4.46 ± 0.3 | 4.02 ± 0.27 |
| CC1CCCC1 [methylcyclopentane] + CN(C)c1cc[n+](COCCCOC[n+]2ccc(N(C)C)cc2)cc1.O=S(=O)([N-]S(=O)(=O)C(F)(F)F)C(F)(F)F.O=S(=O)([N-]S(=O)(=O)C(F)(F)F)C(F)(F)F | 11 ± 0.75 | 9.51 ± 0.65 | 9 ± 0.61 |
| CC1CCCC1 [methylcyclopentane] + Cn1cc[n+](COCCCOC[n+]2ccn(C)c2)c1.O=S(=O)([N-]S(=O)(=O)C(F)(F)F)C(F)(F)F.O=S(=O)([N-]S(=O)(=O)C(F)(F)F)C(F)(F)F | 16.4 ± 1.1 | 10.2 ± 0.7 | – |
| C[N+](=O)[O-] [nitromethane] + CCCCCCCCn1cc[n+](COCCC)c1C.N#C[N-]C#N | 0.68 ± 0.05 | 0.66 ± 0.05 | 0.63 ± 0.04 |
| C[N+](=O)[O-] [nitromethane] + CCCCCCCCn1cc[n+](COCCC)c1C.O=S(=O)([N-]S(=O)(=O)C(F)(F)F)C(F)(F)F | 0.56 ± 0.04 | 0.52 ± 0.04 | 0.52 ± 0.04 |
| C[N+](=O)[O-] [nitromethane] + CCCCCCCCn1cc[n+](COCCCOC[n+]2ccn(CCCCCCCC)c2C)c1C.N#C[N-]C#N.N#C[N-]C#N | 0.44 ± 0.04 | 0.43 ± 0.04 | 0.42 ± 0.04 |
| C[N+](=O)[O-] [nitromethane] + CCCCCCCCn1cc[n+](COCCCOC[n+]2ccn(CCCCCCCC)c2C)c1C.O=S(=O)([N-]S(=O)(=O)C(F)(F)F)C(F)(F)F.O=S(=O)([N-]S(=O)(=O)C(F)(F)F)C(F)(F)F | 0.31 ± 0.03 | 0.29 ± 0.03 | 0.47 ± 0.04 |
| C[N+](=O)[O-] [nitromethane] + CCCOC[n+]1ccc(N(C)C)cc1.O=S(=O)([N-]S(=O)(=O)C(F)(F)F)C(F)(F)F | 0.54 ± 0.04 | 0.55 ± 0.04 | 0.54 ± 0.04 |
| C[N+](=O)[O-] [nitromethane] + CCCOC[n+]1ccn(C)c1.F[B-](F)(F)F | 0.65 ± 0.04 | 0.66 ± 0.05 | 0.67 ± 0.05 |
